GI50 and TGI data for eight compounds are collected here from PubChem BioAssay (NCI).

The structures appear in SMILES notation.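 A five-concentration, 48-hour dose response in 96-well plates underlies each endpoint, interpolated linearly between surrounding concentrations. The concentration for 50% growth inhibition is given as GI50. TGI marks complete inhibition of growth.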 Bounds are passed on as bounds.

Test systems include HCT-15 colon; SR leukemia; HCC-2998 colon; DU-145 prostate; LOX IMVI melanoma; SK-OV-3 ovarian; A498 renal; SNB-75 CNS; SF-295 CNS; OVCAR-5 ovarian.
Common to all, as to test: growth of human tumour cells (NCI), 48 h

In the case of `O=C(Nc1ccc(N2CCNCC2)cc1)c1[nH]ncc1Nc1ncnc2sc3c(c12)CCC3`, the GI50 in the experiment with HCT-15 colon was 0.224 µM; in the experiment on SR leukemia, 0.0638 µM; in the experiment with HCC-2998 colon, 0.62 µM; with DU-145 prostate, 0.302 µM; in the experiment on LOX IMVI melanoma it was 0.199 µM; with SK-OV-3 ovarian, 0.257 µM. Further, the GI50 in the experiment on A498 renal is 0.188 µM; in the experiment with SNB-75 CNS, 0.0657 µM; in the experiment on SF-295 CNS, 0.359 µM; in the experiment with OVCAR-5 ovarian it was 0.33 µM. Besides, the TGI in the experiment with HCT-15 colon was found to be 1.29 µM; with HCC-2998 colon, 2.19 µM; in the experiment with DU-145 prostate, 1.19 µM; in the experiment on LOX IMVI melanoma it was 1.8 µM; with SK-OV-3 ovarian, 1.56 µM; in the experiment with A498 renal, 1.58 µM. In addition, the TGI in the experiment on SNB-75 CNS came out at 1.59 µM; with SF-295 CNS, 1.95 µM; in the experiment on OVCAR-5 ovarian, 1.92 µM.

As to `O=C(Oc1ccc(Cl)cc1Cl)c1ccccc1Nc1ccnc(C(F)(F)F)c1`, the GI50 in the experiment on HCT-15 colon was 2.26 µM; in the experiment on SR leukemia it was 0.772 µM; in the experiment with HCC-2998 colon, 3.25 µM; in the experiment on DU-145 prostate it was 15.7 µM; with A498 renal, 21.5 µM; in the experiment with SF-295 CNS it was 15.6 µM. Also, in the experiment on OVCAR-5 ovarian, the GI50 is 7.9 µM. For the same compound, the TGI with HCT-15 colon was 5.31 µM; in the experiment on SR leukemia, above 100 µM; in the experiment with HCC-2998 colon, 5.49 µM; with DU-145 prostate it was 30.6 µM; in the experiment with A498 renal it was 37.3 µM; in the experiment on SF-295 CNS, 37.2 µM. Further, in the experiment with OVCAR-5 ovarian, the TGI came out at 22 µM.

Take `CC(=O)Nc1ccc2c(c1)c(C1=C(c3cn(C)c4ccccc34)C(=O)NC1=O)cn2C`: the GI50 in the experiment with HCT-15 colon is 1.02 µM; in the experiment on SR leukemia, 0.675 µM; with HCC-2998 colon, above 11.2 µM; in the experiment with DU-145 prostate it was 4.02 µM; in the experiment with LOX IMVI melanoma, 1.63 µM; in the experiment on SK-OV-3 ovarian, 1.22 µM. For the same compound, the GI50 in the experiment with A498 renal was 0.538 µM; in the experiment on SNB-75 CNS it was 0.465 µM; in the experiment with SF-295 CNS it was 1.18 µM; in the experiment on OVCAR-5 ovarian it was above 25 µM. In addition, the TGI in the experiment with HCT-15 colon is above 25 µM; with SR leukemia it was above 17 µM; in the experiment on HCC-2998 colon it was above 25 µM; in the experiment with DU-145 prostate it was above 25 µM; in the experiment on LOX IMVI melanoma, above 25 µM; with SK-OV-3 ovarian, above 25 µM. Moreover, the TGI in the experiment on A498 renal was 1.79 µM; with SNB-75 CNS it was above 6.67 µM; in the experiment with SF-295 CNS, above 25 µM; in the experiment with OVCAR-5 ovarian it was above 25 µM.

For `O=C(CCCCCCSc1nc(-c2ccccc2)cc(-c2ccc(Cl)cc2)n1)NO`, the GI50 was 2.27 µM with HCT-15 colon; 0.416 µM in the experiment with SR leukemia; 2.44 µM in the experiment on HCC-2998 colon; 2.25 µM in the experiment on DU-145 prostate; 2.06 µM in the experiment on LOX IMVI melanoma; 2.36 µM with SK-OV-3 ovarian. The GI50 in the experiment with A498 renal was 1.4 µM; in the experiment on SNB-75 CNS, 1.95 µM; with SF-295 CNS, 2.45 µM; in the experiment with OVCAR-5 ovarian it was 1.56 µM. Besides, the TGI in the experiment on HCT-15 colon was 14 µM; in the experiment with SR leukemia it was 4.67 µM; with HCC-2998 colon, 7.19 µM; with DU-145 prostate, 10.6 µM; with LOX IMVI melanoma it was 4.66 µM; in the experiment on SK-OV-3 ovarian, 6.04 µM. Moreover, the TGI with A498 renal turned out to be 4.09 µM; in the experiment with SNB-75 CNS it was 13.7 µM; with SF-295 CNS it was 6.7 µM; in the experiment with OVCAR-5 ovarian it was 5.42 µM.

As to `COc1ccc2c(c1)[nH]c(=O)c1c3cc(C)c(C)cc3cn21`, the GI50 with HCT-15 colon is below 0.0142 µM; with SR leukemia, below 0.0152 µM; with HCC-2998 colon it was 0.0235 µM; in the experiment with DU-145 prostate it was below 0.01 µM; in the experiment with LOX IMVI melanoma, below 0.014 µM; with SK-OV-3 ovarian, below 0.0194 µM. For the same compound, the GI50 in the experiment on A498 renal is below 0.01 µM; with SNB-75 CNS it was below 0.01 µM; in the experiment on SF-295 CNS, below 0.01 µM; with OVCAR-5 ovarian it was 0.0561 µM. The TGI in the experiment with HCT-15 colon was found to be 0.363 µM; with SR leukemia, 0.224 µM; in the experiment on HCC-2998 colon, 0.0802 µM; in the experiment on DU-145 prostate it was 0.188 µM; with LOX IMVI melanoma it was 1.66 µM; in the experiment with SK-OV-3 ovarian it was 4.59 µM. Also, the TGI with A498 renal is below 0.0295 µM; in the experiment on SNB-75 CNS, 4.37 µM; with OVCAR-5 ovarian, 2.92 µM.

For the compound `COc1cc(-c2nn(-c3ccc(NC(=O)c4ccc(Cl)c(Cl)c4)cc3)cc2-c2ccncc2)ccc1Cl`, the GI50 in the experiment with HCT-15 colon is 2.68 µM; with SR leukemia it was 18.7 µM; in the experiment on HCC-2998 colon, 31.8 µM; in the experiment with DU-145 prostate it was above 100 µM; in the experiment with LOX IMVI melanoma, 2.76 µM; in the experiment on SK-OV-3 ovarian, above 100 µM. Further, the GI50 in the experiment on A498 renal was 5.25 µM; in the experiment on SNB-75 CNS, 7.52 µM; in the experiment with SF-295 CNS, 1.94 µM; with OVCAR-5 ovarian it was above 100 µM. In addition, the TGI with HCT-15 colon, in the experiment on SR leukemia, in the experiment with HCC-2998 colon, in the experiment with DU-145 prostate, in the experiment with LOX IMVI melanoma and in the experiment with SK-OV-3 ovarian was above 100 µM throughout. Also, the TGI in the experiment on A498 renal is above 100 µM; in the experiment with SNB-75 CNS, above 100 µM; in the experiment with SF-295 CNS, 4.57 µM; in the experiment on OVCAR-5 ovarian, above 100 µM.

For the compound `Cc1ncc(CN=Cc2ccc(Cl)cc2)c(N)n1`, the TGI in the experiment with HCT-15 colon, in the experiment with SR leukemia, with DU-145 prostate, in the experiment on LOX IMVI melanoma, in the experiment on SK-OV-3 ovarian and in the experiment on A498 renal was above 100 µM each time. The TGI with SNB-75 CNS, in the experiment on SF-295 CNS and in the experiment on OVCAR-5 ovarian was above 100 µM in each case.

Take `COC(=O)N[C@H]1CCc2c(Br)c(OC)c(OC)c(OC)c2-c2ccc(SC)c(=O)cc21`: the GI50 in the experiment with HCT-15 colon, in the experiment with SR leukemia, in the experiment with HCC-2998 colon, in the experiment on DU-145 prostate, in the experiment on LOX IMVI melanoma and in the experiment with SK-OV-3 ovarian was below 0.01 µM in each case. Further, the GI50 in the experiment on A498 renal, in the experiment on SNB-75 CNS and in the experiment on OVCAR-5 ovarian was below 0.01 µM each time. Moreover, the TGI in the experiment on HCT-15 colon was 11.6 µM; with SR leukemia it was 22.4 µM; in the experiment with HCC-2998 colon, 11.5 µM; with DU-145 prostate, 0.145 µM; in the experiment on LOX IMVI melanoma, 12 µM; in the experiment on SK-OV-3 ovarian, above 100 µM. The TGI in the experiment with A498 renal was below 0.01 µM; in the experiment with SNB-75 CNS, 20.9 µM; in the experiment on OVCAR-5 ovarian, above 39.6 µM.
